Assay results: US5206223A, “Method for inhibiting heparanase activity” (Yeda Research and Development Co. Ltd., priority 1986, dated 1993)
“Also recorded” adds a separate entry of the source.

Legend:
[1] = test system: adjuvant arthritis; assay: Adjuvant arthritis induced with M. tuberculosis; type: in vivo, Lewis rats; conditions: for Inhibition of arthritis / Arthritis score (day 60): rat, in vivo; for Arthritis score (day 60): sc
[2] = test system: experimental autoimmune encephalomyelitis (EAE); assay: Experimental autoimmune encephalomyelitis (EAE) produced by anti-BP T lymphocytes; type: in vivo, Lewis rats; conditions: 10 mg/kg daily
From the text: EAE is an experimental autoimmune disease with some features reminiscent of multiple sclerosis in humans. The disease is caused by T lymphocytes immunized to the basic protein (BP) of the central nervous system myelin. To test the effect of heparins on the ability of T lymphocytes to cause autoimmune disease, we used T lymphocytes sensitized against BP, either as T cell lines (Cohen, I. R. Experimental autoimmune encephalomyelitis: Pathogenesis and prevention. In: Immunoregulatory Processes in Multiple Sclerosis and Experimental Allergic Encephalomyelitis. A. A. Vandenbark and J. C. M. Raus, eds. Elsevier Biomedical Res. Amsterdam. 7:91-125 (1985)) or as populations of lymph node cells from BP immunized rats.
EAE was produced by inoculating Lewis rats with a T cell line of anti-BP T lymphocytes (10^6 cells) with anti-BP primed lymph node cells (10^7 cells) intravenously (Cohen, I. R. Experimental autoimmune encephalomyelitis: Pathogenesis and prevention. In: Immunoregulatory Processes in Multiple Sclerosis and Experimental Allergic Encephalomyelitis. A. A. Vandenbark and J. C. M. Raus, eds. Elsevier Biomedical Res. Amsterdam. 7:91-125 (1985)) One day before inoculation and daily for 10 days, the rats received either saline or the heparins.

[3] = test system: activated T lymphocytes; assay: Traffic of 51Cr-labeled lymphocytes from subcutaneous site and in blood; type: in vivo; conditions: rats or mice
From the text: To test the effect of modified heparin on T lymphocyte traffic, we labelled the lymphocytes with ^51 Cr and measured the uptake of the labeled lymphocytes from a subcutaneous site and their persistence in the blood.
Furthermore, treatment with the modified heparin led to persistence of labeled lymphocytes in the blood for 4-5 days, while the untreated rats or mice cleared the labeled lymphocytes from the blood in 1 day. Thus, treatment with modified heparin inhibited the ability of T lymphocytes to enter the blood vessels, and once in the blood vessels, prevented the T lymphocytes from exiting. This can be attributed to inhibition of the heparanase enzyme activity needed to penetrate the extracellular matrix of the vessel wall.

[4] = test system: skin allografts; assay: Skin allograft survival (SJL/J skin on (BALB/c×C57BL/6)F1 mice); type: in vivo; conditions: 10 mg/kg daily, saline control 10 days
Procedure: FIG. 1. Treatment with heparin (0.05 mg/kg) prevents rejection of skin allografts. Mice of hybrid strain (BALB/c×C57BL/6)F1 were grafted with skin from allogeneic SJL/J mice. The mice (20 per group) were treated daily with subcutaneous injections of saline (squares) or with heparin ("Leo", 0.05 mg/kg; diamonds) and scored for skin graft survival. Median survival for the control group was 10 days while that for the heparin treated group was 24 days.
FIG. 2. Treatment with N-desulfated, N-acetylated heparin (10 mg/kg) prevents rejection of skin allografts. Mice were grafted as described for FIG. 1 and treated daily with saline (squares) or N-desulfated, N-acetylated heparin (10 mg/kg; diamonds). The median survival of the skin allograft in the control group was 10 days while that in the treated group was 20 days.
The median survival time of the skin grafts on control mice treated with saline was […] while that on mice treated with 0.05 mg/kg daily of heparin was 26 days with maximal survival to 32 days.

[5] = rat, in vivo, 10 mg/kg
[6] = test system: heparanase; assay: Inhibition of T lymphocyte heparanase activity (degradation of 35S-labeled heparan sulfate of extracellular matrix); type: biochemical; conditions: medium of activated T lymphocytes, 35S-labeled extracellular matrix, various concentrations
Procedure: Heparanase activity was induced into the extracellular medium bathing activated T lymphocytes and tested by incubating the medium with extracellular matrix whose heparan sulfate was labeled with ^35 S as described (Naparstek, Y., Cohen, I. R., Fuks, Z. and I. Vlodavsky. Activated T lymphocytes produce a matrix-degrading heparan sulphate endoglycosidase. Nature 310:241 (1984)). Inhibition of heparanase activity was tested by adding various concentrations of heparin or modified heparins to the reaction mixture and measuring the effect on degradation of the labeled heparin-sulfate as described (Naparstek, Y., Cohen, I. R., Fuks, Z. and I. Vlodavsky.
Activated T lymphocytes produce a matrix-degrading heparan sulphate endoglycosidase, Nature 310:241 (1984)). Totally desulfated heparin and N-desulfated, N-acetylated heparin was prepared as described. (Ayotte, L., A. S. Perlin. NMR spectroscopic observations related to the function of sulfate groups in heparin. Calcium binding vs. biological activity. Carbohydrate Res. 145:267 (1986)).

| Substance | Inhibition of arthritis [1] | Arthritis score (day 60) [1] | Duration of EAE ([2]; A: T cell line, None 4.2) | Day of onset of EAE ([2]; A: T cell line, None 5.2) | % incidence of EAE ([2]; A: T cell line, None 100) | Clinical score of EAE ([2]; A: T cell line, scale 1-4, None 2.4) | % incidence of EAE ([2]; C: primed lymph node cells, None 80) | Persistence of labeled lymphocytes in the site of injection into the tail ([3]; 0.05 mg/kg, control 1-2 days) | Persistence of labeled lymphocytes in the blood ([3]; untreated cleared in 1 day) | Median survival of skin allograft [4] | Anti-coagulant effect (prothrombin time) [5] | Inhibition of adjuvant arthritis (FIG. 4) ([1]; 0.02 mg per rat (0.1 mg/kg) s.c. once daily from day 9, 0.1 mg/kg) | Inhibition of adjuvant arthritis (FIG. 4) ([1]; 0.04 mg s.c. once daily from day 9) | Histologic examination of the joints ([1]; 0.1 mg/kg/day from day 21 to 51, control rats severe signs of inflammation) | Remission of established adjuvant arthritis (FIG. 5) ([1]; 0.1 mg/kg/day s.c. from day 21 to 51) | Inhibition of degradation of heparan sulfate by heparanase [6] |
| --- | --- | --- | --- | --- | --- | --- | --- | --- | --- | --- | --- | --- | --- | --- | --- | --- |
| N-desulfated heparin | no | 5 | – | – | – | – | – | – | – | – | – | – | – | – | – | – |
| N-desulfated, N-acetylated heparin | yes | 0 | 1.8 days | 6.4 | 50% | 0.8 | 0% | 5 to 6 days | 4 to 5 days | 20 days | no anti-coagulant effect | significant inhibition of arthritis; also recorded: maximum effect | ineffective | healthy joints | early remission of established adjuvant arthritis | yes |
| O-desulfated, N-acetylated heparin | yes | 0 | – | – | – | – | – | – | – | – | – | – | – | – | – | – |
| totally desulfated heparin [Heparin: totally desulfated] | no | 5 | – | – | – | – | – | – | – | – | – | – | – | – | – | no |
